Values of other authors, collected in patent publication US4181708A, “Rumen-stable pellets” (Eastman Kodak Company, priority 1978, dated 1980).
Like-named read-outs stand apart in the source and are kept apart here.

Settings: for Solubility: water

pH of saturated solution	Solubility [g./100 g. water]	SMILES	Solubility (at 25° C.) [g./100 g. water]
6.2		CC(N)C(=O)O (racemic) [DL - Alanine]	
5.7		CSCCC(N)C(=O)O (racemic) [DL - Methionine]	
4.7	3.1	NC(=O)C[C@H](N)C(=O)O [L - Asparagine]	
3.7	0.01	N[C@@H](CS)C(=O)O [L(-) - Cysteine]	
		CC(C)C[C@H](N)C(=O)O [L(-) - Lencine]	2.0

SMILES	pH of saturated solution	Solubility [g./100 g. water]	Solubility (at 25° C.) [g./100 g. water]
NC(Cc1ccccc1)C(=O)O (racemic) [DL - Phenylalanine]	5.6		3.0
N=C(N)NCCC[C@H](N)C(=O)O [L - Arginine]	11.8		
N[C@@H](Cc1ccc(O)cc1)C(=O)O [L(-) - Tyrosine]	7.3		
